Measured values as given in patent publication US9023821B2, “Use of MicroRNA for treating diseases associated with a dysfunction of the cilia in multiciliated epithelial cells” (Centre National de la Recherche Scientifique, priority 2009, dated 2015).

Key:
[1] = system: human airway epithelial cells (HAECs); experiment: Agilent miRNA chips, miRNA expression at four stages of differentiation of HAECs; settings: for Modulation (ratio of the level of intensity of expression in log2 in two stages of differentiation) measured with the Agilent chips, D7 − D0 / Modulation (ratio of the level of intensity of expression in log2 in two stages of differentiation) measured with the Agilent chips, FC − D7 / Modulation (ratio of the level of intensity of expression in log2 in two stages of differentiation) measured with the Agilent chips, WD − D0 / Modulation (ratio of the level of intensity of expression in log2 in two stages of differentiation) measured with the Agilent chips, WD − FC / Level of intensity of expression in log2 measured with the Agilent chips, D0 / Level of intensity of expression in log2 measured with the Agilent chips, D7 / Level of intensity of expression in log2 measured with the Agilent chips, FC / Level of intensity of expression in log2 measured with the Agilent chips, WD: Table VI; for Modulation (ratio of the level of intensity of expression in log2 at two stages of differentiation), FC − D7 / Modulation (ratio of the level of intensity of expression in log2 at two stages of differentiation), WD − FC: Agilent miRNA chips, Table V; for Level of intensity of expression in log2 measured with the Agilent chips, D0: stage D0; for Level of intensity of expression in log2 measured with the Agilent chips, D7: stage D7; for Level of intensity of expression in log2 measured with the Agilent chips, FC: stage FC; for Level of intensity of expression in log2 measured with the Agilent chips, WD: stage WD
Description: In parallel with the high-throughput sequencing of the microRNAs, the repertoire of expression of the microRNAs (microRNAome) is investigated using the technology of Agilent® microRNA chips. For this, RNA samples from the same patients as before were used, labeled and hybridized on Agilent® miRNA chips (Human miRNA Microarray v2, containing 866 human miRNAs and 89 human viral miRNAs, i.e. all the human miRNAs contained and referenced in Sanger miRBase v.12.0, Agilent Technologies, France) using the “miRNA labeling and hybridization” kit, following the supplier's instructions (Agilent Technologies).
The inventors then used the Agilent miRNA chips to investigate the repertoire of expression of the miRNAs of the human airway epithelium and compare the results obtained in high-throughput sequencing with those obtained with Agilent® commercial miRNA chips.

[2] = system: basal cells and pyramidal cells of the airway epithelium; experiment: miRNA expression in sorted basal cells versus pyramidal cells (ciliated + secretory), HTS and Agilent chips; parameters: species or system human; settings: for Modulation of expression of the miRNAs in pyramidal cells (323(−)) relative to basal cells 323(+): HTS and Agilent chips; for Intensity of the level of expression in log2 in pyramidal cells (323(−)): pyramidal cells (ciliated + secretory)
Experimental: After dissociation of the stroma of nasal polyps, the epithelial cells (about 20.10^6) are incubated in PBS-BSA-EDTA for 30 min and then incubated with labeled antibody CD151-PE and anti-TF (tissue factor)-FITC for 20 min, 4° C. (see Hajj, R. et al., Stem Cells 25, 139-148 (2007)). After washing twice, the cells are taken up in PBS-EDTA and incubated with DAPI for labeling the cells whose integrity has been altered.
Cell sorting was carried out on the FACSAria sorter (BD Biosciences) equipped with 3 lasers, blue, red and violet. Dead cells, aggregates and double cells were excluded. The doubly positive population of basal cells (CD151+/FT+) and the negative population of cylindrical cells (containing ciliated cells and mucus-secreting cells) (CD151−/FT−) were selected and sorted at a rate of 5000 events/s ([…]). The purity and identity of the sorted cells were then verified by cytometry and immunocytochemistry.
Like the native airway epithelium, the model of differentiation in vitro used in these tests consists of basal cells, ciliated cells and mucus-secreting cells. In order to identify the repertoires of the miRNAs specific to each of the cellular types, the inventors used cell sorting by flow cytometry by means of specific markers (Hajj, R. et al. 2007). Using this technique, adult airway progenitor cells (corresponding a priori to basal cells) were isolated, selected and sorted (such cells appear doubly positive for tetraspanin CD151 and for the tissue factor) from the pyramidal cells (i.e. ciliated cells and mucus-secreting cells) which appear negative for these same markers. These were purified from polyps or from nasal conchae obtained from 3 separate donors.
After extracting the total RNAs, the expression profiles of the miRNAs were established by means of Agilent® commercial chips or by high-throughput sequencing (HTS). […] For the first time, the inventors thus attribute a repertoire of expression of the miRNAs specifically to separate cellular types of the airway epithelium during differentiation.

[3] = system: human airway epithelial cells (HAECs); experiment: High-throughput sequencing (HTS) of miRNAs at four stages of differentiation of HAECs; settings: for Modulation (ratio of the level of intensity of expression in log2 in two stages of differentiation) measured by high-throughput sequencing, D7 − D0 / Modulation (ratio of the level of intensity of expression in log2 in two stages of differentiation) measured by high-throughput sequencing, FC − D7 / Modulation (ratio of the level of intensity of expression in log2 in two stages of differentiation) measured by high-throughput sequencing, WD − D0 / Modulation (ratio of the level of intensity of expression in log2 in two stages of differentiation) measured by high-throughput sequencing, WD − FC / Level of intensity of expression in log2 measured by high-throughput sequencing, D0 / Level of intensity of expression in log2 measured by high-throughput sequencing, D7 / Level of intensity of expression in log2 measured by high-throughput sequencing, FC / Level of intensity of expression in log2 measured by high-throughput sequencing, WD: Table VI; for Level of intensity of expression in log2 At the differentiated stage (WD) measured in HTS: healthy human airway epithelial tissue; for Level of intensity of expression in log2 measured by high-throughput sequencing, D0: stage D0; for Level of intensity of expression in log2 measured by high-throughput sequencing, D7: stage D7; for Level of intensity of expression in log2 measured by high-throughput sequencing, FC: stage FC; for Level of intensity of expression in log2 At the differentiated stage (WD) measured in HTS / Level of intensity of expression in log2 measured by high-throughput sequencing, WD: stage WD
Description: The total RNAs were extracted from HAECs cultivated at the air-liquid interface at four stages of differentiation: ALI-D0 (0 day), ALI-D7 (7 days), ALI-FC (during appearance of the first cilia at about 14 days) and ALI-WD (wholly differentiated at about 21 days). The cells are lysed in reagent with Trizol® (Invitrogen). The total RNAs containing small RNAs and microRNAs are purified on Qiagen RNEasy columns (Qiagen) according to the supplier's instructions.
The total RNAs containing small RNAs and microRNAs are isolated as before. The procedure is based on the Applied Biosystems Ligase-Enhanced Genome Detection technology (LEGenD™); the SOLiD™ Small RNA Expression kit (Applied Biosystems, France) was used. With this method it is possible to convert the small RNAs of a sample into a library of double-stranded DNA; it was developed by Applied Biosystems SOLiD™ System for a new generation of high-throughput sequencing.
The high-throughput sequencing of the microRNAs was carried out according to the supplier's recommendations. Briefly, the total RNAs containing the small RNAs are hybridized (65° C., 10 min, then at 16° C., 5 min) and ligated (16° C., 2-16 h in a thermocycler) with the Adaptor Mix A for producing a matrix for sequencing the 5′ end of the small RNAs, or with the Adaptor Mix B for sequencing the 3′ end. The samples are then reverse-transcribed (42° C., 30 min) to synthesize the complementary DNA (cDNA). The library of small RNAs is amplified by PCR and after migration on polyacrylamide gel the amplified small RNAs are cut out and extracted from the gel according to their size (length of about 105-150 bases, according to the supplier's instructions), eluted and resuspended in nuclease-free water. The concentration of nucleic acids is then measured and normalized before proceeding with preparation of the samples for sequencing.
For each microRNA sequenced, the number of sequences of the 5p strand and of the 3p strand of the microRNA was normalized to 10^6 sequences and converted to percentage abundance of expression for each of the microRNAs. The data were then normalized according to a linear model and an empirical Bayesian method using software R. For subsequent analyses, only the microRNAs were retained for which the percentage expression (or abundance) is greater than 1% of the total of the microRNAs in at least one culture condition, with a |Log2 Ratio| below 0.5 and an adjusted P-value below 0.05.

Substance	Modulation (ratio of the level of intensity of expression in log2 in two stages of differentiation) measured with the Agilent chips, D7 − D0 [1] [log2]	Modulation (ratio of the level of intensity of expression in log2 at two stages of differentiation), FC − D7 [1] [log2]	Modulation (ratio of the level of intensity of expression in log2 in two stages of differentiation) measured with the Agilent chips, FC − D7 [1] [log2]	Modulation (ratio of the level of intensity of expression in log2 in two stages of differentiation) measured with the Agilent chips, WD − D0 [1] [log2]	Modulation (ratio of the level of intensity of expression in log2 at two stages of differentiation), WD − FC [1] [log2]	Modulation (ratio of the level of intensity of expression in log2 in two stages of differentiation) measured with the Agilent chips, WD − FC [1] [log2]	Level of intensity of expression in log2 measured with the Agilent chips, D0 [1] [log2]	Level of intensity of expression in log2 measured with the Agilent chips, D7 [1] [log2]	Level of intensity of expression in log2 measured with the Agilent chips, FC [1] [log2]	Level of intensity of expression in log2 measured with the Agilent chips, WD [1] [log2]	Modulation of expression of the miRNAs in pyramidal cells (323(−)) relative to basal cells 323(+) [2]	Intensity of the level of expression in log2 in basal cells (323(+)) [2] [log2]	Intensity of the level of expression in log2 in pyramidal cells (323(−)) [2] [log2]	Modulation (ratio of the level of intensity of expression in log2 in two stages of differentiation) measured by high-throughput sequencing, D7 − D0 [3] [log2]	Modulation (ratio of the level of intensity of expression in log2 in two stages of differentiation) measured by high-throughput sequencing, FC − D7 [3] [log2]	Modulation (ratio of the level of intensity of expression in log2 in two stages of differentiation) measured by high-throughput sequencing, WD − D0 [3] [log2]	Modulation (ratio of the level of intensity of expression in log2 in two stages of differentiation) measured by high-throughput sequencing, WD − FC [3] [log2]	Level of intensity of expression in log2 At the differentiated stage (WD) measured in HTS [3] [log2]	Level of intensity of expression in log2 measured by high-throughput sequencing, D0 [3] [log2]	Level of intensity of expression in log2 measured by high-throughput sequencing, D7 [3] [log2]	also measured
hsa-let-7c: human miRNA, SEQ ID No. 159 (UGAGGUAGUAGGUUGUAUGGUU; expressed or natural sequence; listed as Homo sapiens)	1.61	−0.71	−0.71	1.05	0.14	0.14	9.10	10.71	10.00	10.15	−0.48	9.43	8.95	0.14	0.21	0.90	0.55	7.86	6.96	7.10	Level of intensity of expression in log2 measured by high-throughput sequencing, FC [3]: 7.31 log2; Level of intensity of expression in log2 measured by high-throughput sequencing, WD [3]: 7.86 log2
hsa-let-7e: human miRNA, SEQ ID No. 160 (UGAGGUAGGAGGUUGUAUAGUU; expressed or natural sequence; listed as Homo sapiens)	1.38	−0.57	−0.57	0.95	0.15	0.15	8.53	9.91	9.34	9.48	−1.42	8.24	6.82	0.38	−0.27	0.18	0.07	7.60	7.42	7.80	Level of intensity of expression in log2 measured by high-throughput sequencing, FC [3]: 7.53 log2; Level of intensity of expression in log2 measured by high-throughput sequencing, WD [3]: 7.60 log2
